Test results reported in patent US9725445B2, “Cycloalkyl nitrile pyrazolo pyridones as Janus kinase inhibitors” (Merck Sharp & Dohme Corp., priority 2013, dated 2017).
Where a name gives a salt, the structure may show the parent alone.

Experiments:
[1] = target: JAK1 (Homo sapiens (Human), UniProt P23458); assay: Jak biochemical HTRF assay, JAK1; settings: HTRF biochemical assay, recombinant GST-tagged catalytic domain; read-out: JAK1 IC50
[2] = target: JAK2 (Homo sapiens (Human), UniProt O60674); assay: Jak biochemical HTRF assay, JAK2; settings: HTRF biochemical assay, recombinant GST-tagged catalytic domain; read-out: JAK2 IC50
JAK2, sequence (O60674 849-1124): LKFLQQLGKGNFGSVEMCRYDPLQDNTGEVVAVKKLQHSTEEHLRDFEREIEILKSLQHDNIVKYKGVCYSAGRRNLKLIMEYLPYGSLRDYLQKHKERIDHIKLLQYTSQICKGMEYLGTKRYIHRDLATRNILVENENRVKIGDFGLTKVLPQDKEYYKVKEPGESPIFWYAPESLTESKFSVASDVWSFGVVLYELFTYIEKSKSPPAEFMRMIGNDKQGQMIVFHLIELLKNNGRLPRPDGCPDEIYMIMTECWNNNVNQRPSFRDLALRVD

JAK1, sequence (P23458 875-1153): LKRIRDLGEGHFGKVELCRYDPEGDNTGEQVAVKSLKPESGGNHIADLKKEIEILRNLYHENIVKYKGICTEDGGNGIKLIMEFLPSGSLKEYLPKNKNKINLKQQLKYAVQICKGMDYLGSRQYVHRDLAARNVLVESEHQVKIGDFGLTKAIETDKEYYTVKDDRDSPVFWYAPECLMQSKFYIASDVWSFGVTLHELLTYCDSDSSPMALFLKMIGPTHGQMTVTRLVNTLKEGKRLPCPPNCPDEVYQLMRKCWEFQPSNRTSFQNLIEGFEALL

`N#C[C@H]1CCCC[C@@H]1n1nc(Nc2ccc3c(c2)CN(CC2CCCC2)S3(=O)=O)c2c(=O)[nH]ccc21` [Example 3-65, (1S,2S)-2-(3-{[2-(cyclopentylmethyl)-1,1-dioxido-2,3-dihydro-1,2-benzisothiazol-5-yl]amino}-4-oxo-4,5-dihydro-1H-pyrazolo[4,3-c]pyridin-1-yl)cyclohexanecarbonitrile] showed an IC50 [1] of 0.12 nM and an IC50 [2] of 0.65 nM.

`N#C[C@H]1CCCC[C@@H]1n1nc(Nc2ccc([C@@H]3C[C@H]4CC[C@@H](C3)N4)cc2)c2c(=O)[nH]ccc21` [Example 20-1, (1S,2S)-2-(3-((4-((1R,3S,5S)-8-azabicyclo[3.2.1]octan-3-yl)phenyl)amino)-4-oxo-4,5-dihydro-1H-pyrazolo[4,3-c]pyridin-1-yl)cyclohexanecarbonitrile hydrochloride] was tested, and the IC50 [1] was 0.38 nM and the IC50 [2] was 0.57 nM.

With `N#C[C@H]1CCC[C@@H]1n1nc(Nc2ccc3c(c2)CN(CC(F)(F)F)C3=O)c2c(=O)[nH]ccc21` [Example 3-97, (1S,2S)-2-(4-oxo-3-{[1-oxo-2-(2,2,2-trifluoroethyl)-2,3-dihydro-1H-isoindol-5-yl]amino}-4,5-dihydro-1H-pyrazolo[4,3-c]pyridin-1-yl)cyclopentanecarbonitrile] the IC50 [1] was 0.082 nM and the IC50 [2] was 0.44 nM.

For `CC(C)(C)OC(=O)NCc1ccc(Nc2nn([C@H]3CCCC[C@@H]3C#N)c3cc[nH]c(=O)c23)cc1` [Example 3-32, tert-butyl [4-({1-[(1S,2S)-2-cyanocyclohexyl]-4-oxo-4,5-dihydro-1H-pyrazolo[4,3-c]pyridin-3-yl}amino)benzyl]carbamate], the IC50 [1] was 0.45 nM and the IC50 [2] was 1.5 nM.

Work on `N#C[C@H]1CCCC[C@@H]1n1nc(Nc2ccc(S(N)(=O)=O)cc2)c2c(=O)[nH]ccc21` [Example 3-7, 4-({1-[(1S,2S)-2-cyanocyclohexyl]-4-oxo-4,5-dihydro-1H-pyrazolo[4,3-c]pyridin-3-yl}amino)benzenesulfonamide] yielded an IC50 [1] of 0.11 nM and an IC50 [2] of 0.85 nM.

With `N#C[C@H]1CCCC[C@@H]1n1nc(Nc2ccc3c(c2)CNC3C(F)F)c2c(=O)[nH]ccc21` (single isomer, unassigned) [Example 15-28, (1S,2S)-2-(3-{[(1S or 1R)-1-(difluoromethyl)-2,3-dihydro-1H-isoindol-5-yl]amino}-4-oxo-4,5-dihydro-1H-pyrazolo[4,3-c]pyridin-1-yl)cyclohexanecarbonitrile] the IC50 [1] was 0.25 nM and the IC50 [2] was 0.63 nM.

In the case of `CC1c2ccc(Nc3nn([C@H]4CCCC[C@@H]4C#N)c4cc[nH]c(=O)c34)cc2CN1C(=O)OC(C)(C)C` (stereo partly drawn) [Example 18-1, tert-Butyl 5-((1-((1S,2S)-2-cyanocyclohexyl)-4-oxo-4,5-dihydro-1H-pyrazolo[4,3-c]pyridin-3-yl)amino)-1-methylisoindoline-2-carboxylate], the IC50 [1] is reported as 1.3 nM and the IC50 [2] is reported as 5.4 nM.

Molecule `CC(C)(C)OC(=O)CC(C)(C)N1Cc2cc(Nc3nn([C@H]4CCCC[C@@H]4C#N)c4cc[nH]c(=O)c34)ccc2S1(=O)=O` [Example 3-155, tert-butyl 3-[5-({1-[(1S,2S)-2-cyanocyclohexyl]-4-oxo-4,5-dihydro-1H-pyrazolo[4,3-c]pyridin-3-yl}amino)-1,1-dioxido-1,2-benzisothiazol-2(3H)-yl]-3-methylbutanoate] has an IC50 [1] of 0.12 nM and an IC50 [2] of 0.71 nM.

Work on `CC(C)(C)OC(=O)CN1Cc2cc(Nc3nn([C@H]4CCCC[C@@H]4C#N)c4cc[nH]c(=O)c34)ccc2S1(=O)=O` [Example 3-151, tert-butyl [5-({1-[(1S,2S)-2-cyanocyclohexyl]-4-oxo-4,5-dihydro-1H-pyrazolo[4,3-c]pyridin-3-yl}amino)-1,1-dioxido-1,2-benzisothiazol-2(3H)-yl]acetate] yielded an IC50 [1] of 0.041 nM and an IC50 [2] of 0.52 nM.

For `CN(C)[C@H]1CC[C@H](n2nc(Nc3ccc(Cl)cc3)c3c(=O)[nH]ccc32)[C@@H](C#N)C1` [Example 5-16, (1S,2S,5S)-2-(3-((4-chlorophenyl)amino)-4-oxo-4,5-dihydro-1H-pyrazolo[4,3-c]pyridin-1-yl)-5-(dimethylamino)cyclohexanecarbonitrile], the IC50 [1] was 0.34 nM and the IC50 [2] was 11 nM.
